Data on 34 molecules can be found in patent US11186564B2, “Dual NAV1.2/5HT2a inhibitors for treating CNS disorders” (Sunovion Pharmaceuticals Inc., priority 2016, dated 2021).

Structures are written as SMILES.

The target of experiment [1] is T1, recombinant human serotonin receptor 5-HT2A (Homo sapiens, UniProt P28223).
T1 construct: expressed in transfected cells; method B: loaded with Ca2+ dye
The experiment in a line: 5-HT2A antagonist Ca2+ assay in CHO-K1 cells (method A aequorin luminescence / method B FLIPR fluorescence). It is filed as cell-based. The settings on record: antagonist mode vs EC80 of reference agonist, method A or B, read-out: 5HT2A IC50. In short, it runs like this:
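IC50 was obtained by nonlinear regression of percent inhibition of the EC80 agonist Ca2+ response in CHO-K1 cells stably expressing human 5-HT2A. The readout was aequorin luminescence with agonist injected 15 min after compound (A), or Ca2+-dye fluorescence on FLIPR with serotonin as agonist (B).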

In experiment [2] the target is human sodium channel NaV1.2 (Homo sapiens, UniProt Q99250). Briefly: NaV1.2 inhibition, automated patch-clamp (Q-Patch HTX), slow inactivated state (state C). The class given is cell-based. The settings on record: hNaV1.2 CHO cells, slow inactivated state; for IC50: read-out: NaV1.2 IC50; for inhibition at 10 µM: 10 μM compound, read-out: NaV1.2 (% inh), 10 μM; for inhibition at 1 µM: 1 μM compound, read-out: NaV1.2 (% inh), 1 μM. In short, it runs like this:
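IC50 comes from a least-squares fit of percent inhibition, relative to vehicle, of current in the slow-inactivated state. That state is reached by a 10 s prepulse to −50 mV, then 15 ms at −90 mV, then a 5 ms test pulse to 0 mV. Human NaV1.2 in stable CHO K-1 cells, held at −100 mV, automated patch clamp.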

Chain of human sodium channel NaV1.2 (Q99250 whole entry): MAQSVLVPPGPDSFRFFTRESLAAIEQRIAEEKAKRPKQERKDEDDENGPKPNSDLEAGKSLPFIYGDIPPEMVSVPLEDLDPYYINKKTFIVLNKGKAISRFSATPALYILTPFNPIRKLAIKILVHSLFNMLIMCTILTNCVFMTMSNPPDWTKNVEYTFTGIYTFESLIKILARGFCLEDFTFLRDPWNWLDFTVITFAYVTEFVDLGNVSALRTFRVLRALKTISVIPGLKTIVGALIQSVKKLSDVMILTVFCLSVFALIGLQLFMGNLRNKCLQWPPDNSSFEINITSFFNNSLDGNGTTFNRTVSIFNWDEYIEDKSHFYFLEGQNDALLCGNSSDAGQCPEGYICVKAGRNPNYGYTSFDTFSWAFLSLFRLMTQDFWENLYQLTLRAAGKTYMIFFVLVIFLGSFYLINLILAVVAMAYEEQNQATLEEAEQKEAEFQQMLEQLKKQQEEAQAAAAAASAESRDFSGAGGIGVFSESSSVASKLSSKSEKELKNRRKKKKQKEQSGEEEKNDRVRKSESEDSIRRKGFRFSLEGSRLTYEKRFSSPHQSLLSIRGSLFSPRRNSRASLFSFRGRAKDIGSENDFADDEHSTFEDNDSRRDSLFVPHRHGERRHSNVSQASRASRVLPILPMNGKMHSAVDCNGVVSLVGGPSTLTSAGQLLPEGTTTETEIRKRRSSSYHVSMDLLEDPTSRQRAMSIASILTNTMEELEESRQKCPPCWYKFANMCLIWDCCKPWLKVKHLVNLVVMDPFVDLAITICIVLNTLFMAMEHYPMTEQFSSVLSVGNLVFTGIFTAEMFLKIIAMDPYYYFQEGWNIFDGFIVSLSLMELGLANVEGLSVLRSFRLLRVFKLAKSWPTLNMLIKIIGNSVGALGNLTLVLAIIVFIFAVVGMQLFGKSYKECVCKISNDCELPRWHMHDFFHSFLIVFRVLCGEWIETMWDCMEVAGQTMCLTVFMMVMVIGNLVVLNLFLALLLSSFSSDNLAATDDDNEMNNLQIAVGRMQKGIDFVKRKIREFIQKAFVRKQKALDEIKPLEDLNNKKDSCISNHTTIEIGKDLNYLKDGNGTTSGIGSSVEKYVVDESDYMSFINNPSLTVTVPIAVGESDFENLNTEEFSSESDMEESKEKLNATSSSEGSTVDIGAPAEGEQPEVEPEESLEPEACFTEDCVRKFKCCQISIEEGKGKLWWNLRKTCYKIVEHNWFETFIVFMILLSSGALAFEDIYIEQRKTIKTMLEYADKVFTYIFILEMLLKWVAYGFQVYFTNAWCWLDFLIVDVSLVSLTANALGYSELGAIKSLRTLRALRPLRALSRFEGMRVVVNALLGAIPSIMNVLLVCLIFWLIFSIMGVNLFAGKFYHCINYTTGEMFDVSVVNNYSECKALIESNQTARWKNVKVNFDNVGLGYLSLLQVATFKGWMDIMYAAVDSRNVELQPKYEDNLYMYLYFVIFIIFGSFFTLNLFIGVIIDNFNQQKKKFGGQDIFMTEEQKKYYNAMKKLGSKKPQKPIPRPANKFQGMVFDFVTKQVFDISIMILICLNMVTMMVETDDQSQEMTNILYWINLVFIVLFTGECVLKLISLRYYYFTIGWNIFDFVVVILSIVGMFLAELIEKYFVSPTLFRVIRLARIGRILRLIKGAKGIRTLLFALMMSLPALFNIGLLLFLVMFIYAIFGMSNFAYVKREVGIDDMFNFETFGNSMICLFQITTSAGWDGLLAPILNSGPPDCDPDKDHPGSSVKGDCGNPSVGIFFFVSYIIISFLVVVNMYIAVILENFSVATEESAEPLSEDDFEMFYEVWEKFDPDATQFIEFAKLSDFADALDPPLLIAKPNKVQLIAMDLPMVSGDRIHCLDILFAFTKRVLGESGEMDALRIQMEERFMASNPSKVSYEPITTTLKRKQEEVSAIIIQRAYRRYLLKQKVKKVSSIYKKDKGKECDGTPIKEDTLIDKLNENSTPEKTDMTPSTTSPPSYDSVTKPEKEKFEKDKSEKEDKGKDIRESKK
T1 sequence (P28223 whole entry): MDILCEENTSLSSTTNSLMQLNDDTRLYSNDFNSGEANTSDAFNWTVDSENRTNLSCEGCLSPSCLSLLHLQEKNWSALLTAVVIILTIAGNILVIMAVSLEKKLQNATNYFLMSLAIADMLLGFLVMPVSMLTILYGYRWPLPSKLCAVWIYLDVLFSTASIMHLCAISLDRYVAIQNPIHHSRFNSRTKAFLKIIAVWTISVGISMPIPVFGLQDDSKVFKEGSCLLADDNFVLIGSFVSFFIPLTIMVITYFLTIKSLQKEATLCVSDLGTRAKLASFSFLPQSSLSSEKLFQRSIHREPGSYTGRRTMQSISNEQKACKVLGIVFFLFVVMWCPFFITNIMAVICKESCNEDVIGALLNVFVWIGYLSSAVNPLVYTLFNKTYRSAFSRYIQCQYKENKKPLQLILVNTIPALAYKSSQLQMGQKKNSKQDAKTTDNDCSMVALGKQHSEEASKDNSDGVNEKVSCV

Take `O[C@H](CO[C@@H]1CCCc2ccccc21)CN1CC[C@@H](Oc2ccc(F)cc2)C1` [Example 52, (S)-1-((R)-3-(4-fluorophenoxy)pyrrolidin-1-yl)-3-(((R)-1,2,3,4-tetrahydronaphthalen-1-yl)oxy)propan-2-ol]: the IC50 in experiment [1] worked out at 140 nM; in experiment [2], 1690 nM.
Take `c1ccc(O[C@@H]2COC3(CCN(C[C@@H]4CCc5ccccc54)CC3)C2)cc1` (single isomer, unassigned) [Compound 383]: the values for the IC50 in experiment [1] and in experiment [2] were 340 nM and 110 nM, respectively.
With `c1ccc(OC2CCN(CCOc3ccc4cccnc4c3)CC2)cc1` [Example 232, 7-(2-(4-phenoxypiperidin-1-yl)ethoxy)quinoline], the IC50 in experiment [1] stood at 220 nM. Further, the inhibition at 10 µM in experiment [2] stood at 76%.
With `c1ccc(N2[C@@H]3CC[C@H]2CN(CC2CCc4ccccc42)C3)cc1` (stereo partly drawn) [Example 295, (1R,5S)-3-((2,3-dihydro-1H-inden-1-yl)methyl)-8-phenyl-3,8-diazabicyclo[3.2.1]octane], the IC50 in experiment [1] was greater than 16700 nM. In addition, in experiment [2], the inhibition at 1 µM was determined as 2%.
On to `c1ccc(C2COC3(CCN(CC4CCc5ccccc54)CC3)C2)cc1` (single isomer, unassigned) [Example 375, 8-((2,3-dihydro-1H-inden-1-yl)methyl)-3-phenyl-1-oxa-8-azaspiro[4,5]decane], for which the IC50 stood at 260 nM in experiment [1] and 350 nM in experiment [2].
Regarding `CN(C)Cc1ccc2c(c1)C(=O)N(CCN1CCC(Oc3ccc(F)cc3)CC1)CCC2` [Example 211, 8-((dimethylamino)methyl)-2-(2-(4-(4-fluorophenoxy)piperidin-1-yl)ethyl)-2,3,4,5-tetrahydro-1H-benzo[c]azepin-1-one], the IC50 in experiment [1] was 270 nM. The inhibition at 10 µM in experiment [2] was determined as 50%.
Regarding `Fc1ccc(OC2CCN(CCC3CCCCO3)CC2)cc1` (centres unmarked) [Example 168, 4-(4-fluorophenoxy)-1-(2-(tetrahydro-2H-pyran-2-yl)ethyl)piperidine], the IC50 in experiment [1] amounted to 130 nM. The inhibition at 1 µM in experiment [2] turned out to be 2%.
Regarding `O=C1c2ccc(Br)cc2CCCN1CCN1CCC(Oc2ccc(F)cc2)CC1` [Example 213, 7-bromo-2-(2-(4-(4-fluorophenoxy)piperidin-1-yl)ethyl)-2,3,4,5-tetrahydro-1H-benzo[c]azepin-1-one], the IC50 in experiment [1] turned out to be 80 nM; in experiment [2] it was 180 nM.
Regarding `c1ccc2c(c1)CCC1(CCN(CC3CCc4ccccc43)CC1)O2` (centres unmarked) [Example 401, 1′-((2,3-dihydro-1H-inden-1-yl)methyl)spiro[chromane-2,4′-piperidine]], the figures for the IC50 in experiment [1] and in experiment [2] were 50 nM and 110 nM, respectively.
`c1ccc2c(c1)CC(CN1CCC3(CCc4ccccc4O3)CC1)C2` [Example 410, 1′-((2,3-dihydro-1H-inden-2-yl)methyl)spiro[chromane-2,4′-piperidine]]: the IC50 in experiment [1] came out at 100 nM; in experiment [2], 480 nM.
Turning to `O=C1c2ccccc2CCN1CCCN1CCC(Oc2ccc(F)cc2)CC1` [Example 222, 2-(3-(4-(4-fluorophenoxy)piperidin-1-yl)propyl)-3,4-dihydroisoquinolin-1(2H)-one], the results for the IC50 in experiment [1] and in experiment [2] were 60 nM and 1300 nM, respectively.
With `c1ccc(O[C@H]2COC3(C2)CN(C[C@H]2CCc4ccccc42)C3)cc1` (single isomer, unassigned) [Compound 365], the IC50 in experiment [1] was 220 nM; in experiment [2], 2180 nM.
For `COc1ccc2c(c1)C(CN1CCC(Oc3ccccc3)CC1)CC2` (centres unmarked) [Example 107, 1-((6-methoxy-2,3-dihydro-1H-inden-1-yl)methyl)-4-phenoxypiperidine], in that order: 4 nM and 1990 nM.
Take `O[C@H](COC1CCCCC1)CN1C[C@@H]2C[C@H]1CN2Cc1ccccc1` [Example 309, (S)-1-((1S,4S)-5-benzyl-2,5-diazabicyclo[2.2.1]heptan-2-yl)-3-(cyclohexyloxy)propan-2-ol]: the IC50 in experiment [1] worked out at 4810 nM. The inhibition at 10 µM in experiment [2] was 52%.
`C1=C(c2ccccc2)COC12CN(CC1CCc3ccccc31)C2` (centres unmarked) [Example 358, 2-((2,3-dihydro-1H-inden-1-yl)methyl)-7-phenyl-5-oxa-2-azaspiro[3.4]oct-7-ene]: the IC50 in experiment [1] was 870 nM; in experiment [2], greater than 10000 nM.
Regarding `O=C(CN1CCC(Oc2ccccc2)CC1)c1ccccc1` [Example 216, 2-(4-phenoxypiperidin-1-yl)-1-phenylethan-1-one], the IC50 in experiment [1] was determined as 150 nM. In addition, the inhibition at 1 µM in experiment [2] amounted to 34%.
On to `COc1ccccc1OC1CCN(CC2Cc3ccccc3C2)[C@@H](C)C1` (single isomer, unassigned) [Example 147], for which the IC50 in experiment [1] was determined as 70 nM; in experiment [2], 1530 nM.
For the molecule `Clc1cccc(N2CCN(CCc3ccccc3)CC2)c1` [Example 64, 1-(3-chlorophenyl)-4-phenethylpiperazine], the IC50 in experiment [1] was 40 nM. Besides, the inhibition at 10 µM in experiment [2] was found to be 93%.
In the case of `O=C1c2cccnc2CCN1CCN1CCC(Oc2ccc(F)cc2)CC1` [Example 207, 6-(2-(4-(4-fluorophenoxy)piperidin-1-yl)ethyl)-7,8-dihydro-1,6-naphthyridin-5(6H)-one], the IC50 in experiment [1] stood at 30 nM. Moreover, in experiment [2], the inhibition at 10 µM was 38%.
For `O=C(NCCN1CCCCC1)c1cccc(-c2ccc(Oc3ccc(F)cc3)cc2)n1` [Example 447, 6-(4-(4-fluorophenoxy)phenyl)-N-(2-(piperidin-1-yl)ethyl)picolinamide], in that order: 1260 nM and 99%.
Turning to `O=C1c2ccccc2CCN1CCN1CCC(Oc2ccc(F)cc2)CC1` [Example 200, 2-(2-(4-(4-fluorophenoxy)piperidin-1-yl)ethyl)-3,4-dihydroisoquinolin-1(2H)-one], the IC50 in experiment [1] is 10 nM. The inhibition at 10 µM in experiment [2] amounted to 73%.
Turning to `c1ccc(N2C[C@@H]3CC[C@H]2CN3CCC2COCc3ccccc32)cc1` (stereo partly drawn) [Example 315, (1S,4S)-2-(2-(isochroman-4-yl)ethyl)-5-phenyl-2,5-diazabicyclo[2.2.2]octane], the IC50 in experiment [1] amounted to 5280 nM. In addition, the inhibition at 1 µM in experiment [2] came out at 5%.
`Fc1ccc(OC2COC3(C2)CN(CC2CCc4ccccc42)C3)cc1` (centres unmarked) [Example 368, 2-((2,3-dihydro-1H-inden-1-yl)methyl)-7-(4-fluorophenoxy)-5-oxa-2-azaspiro[3.4]octane]: the results for the 50% inhibitory concentration (IC50) in experiment [1] and in experiment [2] were 150 nM and 380 nM, respectively.
Consider `OC1(c2ccccc2)COC2(CCN(CC3CCc4ccccc43)CC2)C1` (centres unmarked) [Example 374, 8-((2,3-dihydro-1H-inden-1-yl)methyl)-3-phenyl-1-oxa-8-azaspiro[4.5]decan-3-ol], for which the IC50 in experiment [1] was 250 nM. Further, the inhibition at 1 µM in experiment [2] was determined as 9%.
As to `Fc1ccc(OC2CCN(CC3CCOc4ccccc43)CC2)cc1` (centres unmarked) [Example 165, 1-(chroman-4-ylmethyl)-4-(4-fluorophenoxy)piperidine], the half-maximal inhibitory concentration (IC50) in experiment [1] amounted to 20 nM; in experiment [2], 910 nM.
In the case of `OC(COc1ccccc1)CN1CCC2(CCc3ccccc3O2)CC1` (centres unmarked) [Example 439, 1-phenoxy-3-(spiro[chromane-2,4′-piperidin]-1′-yl)propan-2-ol], the values for the IC50 in experiment [1] and in experiment [2] were 10 nM and 500 nM, respectively.
Consider `CC1(C)Oc2ccccc2C1CN1CCC(Oc2ccccc2)CC1` (centres unmarked) [Example 131, 1-((2,2-dimethyl-2,3-dihydrobenzofuran-3-yl)methyl)-4-phenoxypiperidine], for which, in experiment [1], the IC50 was found to be 290 nM. Moreover, in experiment [2], the inhibition at 1 µM is -1%.
Regarding `CN(C)c1ccc(OC2CCN(CCN3CCc4ccccc4C3=O)CC2)cc1` [Example 201, 2-(2-(4-(4-(dimethylamino)phenoxy)piperidin-1-yl)ethyl)-3,4-dihydroisoquinolin-1(2H)-one], the IC50 in experiment [1] was 2170 nM. Moreover, the inhibition at 10 µM in experiment [2] came to 39%.
Take `O=C1c2ccncc2CCN1CCN1CCC(Oc2ccc(F)cc2)CC1` [Example 203, 2-(2-(4-(4-fluorophenoxy)piperidin-1-yl)ethyl)-3,4-dihydro-2,6-naphthyridin-1(2H)-one]: in experiment [1], the IC50 came out at 70 nM. Further, in experiment [2], the inhibition at 10 µM came to 14%.
Consider `N#Cc1ccc(OC2CCN(CC3CCOc4ccccc43)CC2)cc1` (centres unmarked) [Example 166, 4-((1-(chroman-4-ylmethyl)piperidin-4-yl)oxy)benzonitrile], for which the IC50 in experiment [1] was 310 nM. Also, the inhibition at 1 µM in experiment [2] was -2%.
In the case of `c1ccc2c(c1)CCC2CN1CCC2(CCc3ncccc3O2)CC1` (centres unmarked) [Example 403, 1-((2,3-dihydro-1H-inden-1-yl)methyl)-3′,4′-dihydrospiro[piperidine-4,2′-pyrano[3,2-b]pyridine]], the IC50 in experiment [1] came out at 4 nM. Further, the inhibition at 1 µM in experiment [2] was -4%.
`OC1(CN2CCC(Oc3ccc(F)cc3)CC2)COCc2ccccc21` (centres unmarked) [Example 159, 4-((4-(4-fluorophenoxy)piperidin-1-yl)methyl)isochroman-4-ol]: the concentration for half-maximal inhibition (IC50) in experiment [1] stood at 20 nM. The inhibition at 10 µM in experiment [2] worked out at 77%.
For the molecule `O[C@@H](COC1CCCCC1)CN1CCC2(CCN(c3ccccc3)C2)C1` (stereo partly drawn) [Example 346, (2R)-1-(cyclohexyloxy)-3-(7-phenyl-2,7-diazaspiro[4.4]nonan-2-yl)propan-2-ol], the IC50 in experiment [1] came out at 270 nM; in experiment [2], 320 nM.
For the molecule `c1ccc(C2COC3(C2)CN(CC2CCc4ccccc42)C3)cc1` (centres unmarked) [Example 359, 2-((2,3-dihydro-1H-inden-1-yl)methyl)-7-phenyl-5-oxa-2-azaspiro[3.4]octane], in experiment [1], the IC50 was 550 nM. In addition, in experiment [2], the inhibition at 1 µM worked out at 16%.
